Measured values as given in patent US9567320B2, “Pyridazinone-amides derivatives” (Merck Patent GmbH, priority 2013, dated 2017).

Legend:
IRAK4 = IRAK4 (Homo sapiens (Human), UniProt Q9NWZ3); assay: IRAK4 enzymatic assay; format: biochemical; conditions: human recombinant His-TEV-IRAK4, ATP 2 μM, STK1-biotin peptide, FlashPlate
Procedure: IRAK4 is a human purified recombinant enzyme (His-TEV-IRAK1 (194-712)
IRAK4 hydrolyses ATP, autophosphorylates and phosphorylates a Serine/Threonine generic peptidic substrate (STK: 61ST1BLC from CisBio International based in Bagnols/Cèze FR).
Measurement of IRAK-4 inhibition is performed in streptavidin coated 384 well FlashPlate (PerkinElmer #SMP410A). His-TEV-IRAK4 (20 ng/well), ATP (2 μM, [^33P]ATP 0.25 μCi/well), STK1-biotin peptide (300 nM) and compounds in DMSO (range of concentrations from 20 μM to 1 nM) or controls (2% DMSO) are incubated for 3 hours at 30° C. in assay buffer: Hepes pH7.0 50 mM, Fatty acid-free BSA 0.1%, Dithiothreitol DTT 2 mM, MgCl2 10 mM, EGTA 0.5 mM, Tween-20 0.01%, MnCl2 5 mM. Kinase reaction is stopped by addition of EDTA. Supernatant is discarded, plates are washed three times with 150 mM NaCl and radioactivity is then measured in a Microbeta Trilux reader.

IRAK1 = IRAK1 (Homo sapiens (Human), UniProt P51617); assay: IRAK1 enzymatic assay; format: biochemical; conditions: human recombinant His-TEV-IRAK1, ATP 1 μM, FlashPlate
Procedure: IRAK1 is a human purified recombinant enzyme (His-TEV-IRAK1 (194-712)) In this assay, IRAK-1 hydrolyses ATP and autophosphorylates.
Measurement of IRAK-1 inhibition is performed in streptavidin coated 384 well FlashPlate (PerkinElmer #SMP410A).
His-TEV-IRAK-1 (15 ng/well), ATP (1 μM, [^33P]ATP 0.25 μCi/well) and compounds in DMSO (range of concentrations from 20 μM to 1 nM) or controls (2% DMSO) are incubated for 3 hours at 30° C. in assay buffer: Hepes pH7.0 50 mM, Fatty acid-free BSA 0.1%, Dithiothreitol DTT 2 mM, MgCl2 10 mM, EGTA 0.5 mM, Triton-X-100 0.01%. Kinase reaction is stopped by addition of EDTA. Supernatant is discarded, plates are washed three times with 150 mM NaCl and radioactivity is then measured in a Microbeta Trilux reader.

Chain of IRAK1 (P51617 194-712): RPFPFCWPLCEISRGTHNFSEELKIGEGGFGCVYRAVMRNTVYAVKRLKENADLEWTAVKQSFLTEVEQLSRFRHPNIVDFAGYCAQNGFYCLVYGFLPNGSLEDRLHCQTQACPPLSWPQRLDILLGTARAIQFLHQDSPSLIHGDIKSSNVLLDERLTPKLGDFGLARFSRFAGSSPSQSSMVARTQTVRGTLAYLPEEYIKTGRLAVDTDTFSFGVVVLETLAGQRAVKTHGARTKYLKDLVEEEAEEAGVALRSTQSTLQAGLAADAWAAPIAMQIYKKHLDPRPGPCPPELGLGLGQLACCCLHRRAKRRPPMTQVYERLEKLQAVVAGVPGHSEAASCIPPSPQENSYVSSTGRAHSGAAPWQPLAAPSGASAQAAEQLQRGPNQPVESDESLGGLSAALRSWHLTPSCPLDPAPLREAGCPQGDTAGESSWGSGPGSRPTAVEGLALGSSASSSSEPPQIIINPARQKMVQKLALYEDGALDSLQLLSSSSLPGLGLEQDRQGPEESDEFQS
Chain of IRAK4 (Q9NWZ3 whole entry): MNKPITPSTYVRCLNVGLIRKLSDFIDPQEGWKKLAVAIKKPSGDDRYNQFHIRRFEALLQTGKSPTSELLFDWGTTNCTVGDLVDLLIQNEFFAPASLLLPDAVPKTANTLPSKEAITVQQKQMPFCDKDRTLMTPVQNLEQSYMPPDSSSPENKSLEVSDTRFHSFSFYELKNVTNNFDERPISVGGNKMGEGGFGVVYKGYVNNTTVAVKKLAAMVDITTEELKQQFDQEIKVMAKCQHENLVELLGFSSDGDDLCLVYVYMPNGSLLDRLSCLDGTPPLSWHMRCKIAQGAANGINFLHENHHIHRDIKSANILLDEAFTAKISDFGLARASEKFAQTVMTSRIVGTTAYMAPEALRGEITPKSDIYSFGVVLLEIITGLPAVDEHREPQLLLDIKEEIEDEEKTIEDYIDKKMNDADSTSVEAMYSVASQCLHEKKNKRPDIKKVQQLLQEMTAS

SMILES | IC50 (IRAK4) [nM] | IC50 (IRAK1) [nM]
Cc1ccncc1-c1ccc(=O)n(Cc2cccc(C(=O)Nc3nc4ccccc4[nH]3)c2)n1 [Example 12, N-(1H-benzo[d]imidazol-2-yl)-3-((3-(4-methylpyridin-3-yl)-6-oxopyridazin-1(6H)-yl)methyl)benzamide] | 100 to 1000 | –
CN(C)Cc1ccc(-c2ccc(=O)n(Cc3cccc(C(=O)Nc4nc5ccccc5[nH]4)c3)n2)cn1 [Example 11, N-(1H-benzo[d]imidazol-2-yl)-3-((3-(6-((dimethylamino)methyl)pyridin-3-yl)-6-oxopyridazin-1(6H)-yl)methyl)benzamide] | 1000 to 5000 | 1000 to 5000
COc1cc2nc(NC(=O)c3cccc(Cn4nc(-c5cccnc5)ccc4=O)c3)[nH]c2cc1OC [Example 15, N-(5,6-dimethoxy-1H-benzo[d]imidazol-2-yl)-3-((6-oxo-3-(pyridin-3-yl)pyridazin-1(6H)-yl)methyl)benzamide] | < 100 | 100 to 1000
O=C(Nc1nc2ccccc2[nH]1)c1cccc(Cn2nc(-c3cccnc3)ccc2=O)c1 [Example 2, N-(1H-Benzoimidazol-2-yl)-3-(6-oxo-3-pyridin-3-yl-6H-pyridazin-1-ylmethyl)-benzamide] | 100 to 1000 | < 100
CC(C)(C)C(=O)Oc1ccc2[nH]c(NC(=O)c3cccc(Cn4nc(-c5cccnc5)ccc4=O)c3)nc2c1 [Example 1, 2,2-Dimethyl-propionic acid 2-[3-(6-oxo-3-pyridin-3-yl-6H-pyridazin-1-ylmethyl)-benzoylamino]-1H-benzoimidazol-5-yl ester] | < 100 | 100 to 1000
Cc1cc(-c2ccc(=O)n(Cc3cccc(C(=O)Nc4nc5ccccc5[nH]4)c3)n2)cnn1 [Example 13, N-(1H-benzo[d]imidazol-2-yl)-3-((3-(6-methylpyridazin-4-yl)-6-oxopyridazin-1(6H)-yl)methyl)benzamide] | 100 to 1000 | 100 to 1000
Nc1ccc(-c2ccc(=O)n(Cc3cccc(C(=O)Nc4nc5ccccc5[nH]4)c3)n2)cn1 [Example 9, 3-[3-(6-Amino-pyridin-3-yl)-6-oxo-6H-pyridazin-1-ylmethyl]-N-(1H-benzoimidazol-2-yl)-benzamide] | < 100 | < 100
COC(=O)c1ccc2[nH]c(NC(=O)c3cccc(Cn4nc(-c5cccnc5)ccc4=O)c3)nc2c1 [Example 4, 2-[3-(6-Oxo-3-pyridin-3-yl-6H-pyridazin-1-ylmethyl)-benzoylamino]-1H-benzoimidazole-5-carboxylic acid methyl ester] | 1000 to 5000 | –
Cc1cc(=O)n(Cc2cccc(C(=O)Nc3nc4ccccc4[nH]3)c2)nc1-c1cccnc1 [Example 10] | – | 100 to 1000
CN(C)C(=O)Cc1ccc2[nH]c(NC(=O)c3cccc(Cn4nc(-c5cccnc5)ccc4=O)c3)nc2c1 [Example 6, N-(5-Dimethylcarbamoylmethyl-1H-benzoimidazol-2-yl)-3-(6-oxo-3-pyridin-3-yl-6H-pyridazin-1-ylmethyl)-benzamide] | < 100 | < 100
O=C(Nc1nc2ccccc2[nH]1)c1cccc(Cn2nc(-c3cncc(CO)c3)ccc2=O)c1 [Example 17, N-(1H-Benzoimidazol-2-yl)-3-[3-(5-hydroxymethyl-pyridin-3-yl)-6-oxo-6H-pyridazin-1-ylmethyl]-benzamide] | < 100 | < 100
O=C(Nc1nc2ccccc2[nH]1)c1cccc(Cn2nc(-c3ccc(CO)nc3)ccc2=O)c1 [Example 7, N-(1H-Benzoimidazol-2-yl)-3-[3-(6-hydroxymethyl-pyridin-3-yl)-6-oxo-6H-pyridazin-1-ylmethyl]-benzamide] | < 100 | –
O=C(Nc1nc2ccccc2[nH]1)c1cccc(Cn2nc(-c3cncnc3)ccc2=O)c1 [Example 8, N-(1H-Benzoimidazol-2-yl)-3-(6-oxo-3-pyrimidin-5-yl-6H-pyridazin-1-ylmethyl)-benzamide] | 100 to 1000 | 100 to 1000
O=C(Nc1nc2cc(CO)ccc2[nH]1)c1cccc(Cn2nc(-c3cccnc3)ccc2=O)c1 [Example 5, N-(5-Hydroxymethyl-1H-benzoimidazol-2-yl)-3-(6-oxo-3-pyridin-3-yl-6H-pyridazin-1-ylmethyl)-benzamide] | < 100 | < 100
COc1ccc2[nH]c(NC(=O)c3cccc(Cn4nc(-c5cccnc5)ccc4=O)c3)nc2c1 [Example 16, N-(5-methoxy-1H-benzo[d]imidazol-2-yl)-3-((6-oxo-3-(pyridin-3-yl)pyridazin-1(6H)-yl)methyl)benzamide] | 100 to 1000 | < 100
Cn1c(NC(=O)c2cccc(Cn3nc(-c4cccnc4)ccc3=O)c2)nc2ccccc21 [Example 3, N-(1-Methyl-1H-benzoimidazol-2-yl)-3-(6-oxo-3-pyridin-3-yl-6H-pyridazin-1-ylmethyl)-benzamide] | 1000 to 5000 | –
CN(C)Cc1cncc(-c2ccc(=O)n(Cc3cccc(C(=O)Nc4nc5ccccc5[nH]4)c3)n2)c1 [Example 14, N-(1H-benzo[d]imidazol-2-yl)-3-((3-(5-((dimethylamino)methyl)pyridin-3-yl)-6-oxopyridazin-1(6H)-yl)methyl)benzamide] | 1000 to 5000 | –
